{"source": "ChEMBL document CHEMBL4219204", "about": "“Structure-based design and discovery of potent and selective KDM5 inhibitors” (Bioorg Med Chem Lett, 2018)", "key": {"[1]": {"target": "Lysine-specific histone demethylase 1A (Homo sapiens, UniProt O60341)", "test": "Inhibition of KDM1A (unknown origin)"}, "Mus musculus [2]": {"tested_on": "Mus musculus", "test": "In vivo inhibition of KDM5 in nude mouse xenografted with human MCF7 cells assessed as increase in H3K4me3 level in tumor at 75 mg/kg, po qd for 5 days measured up to 24 hrs post last dose by Western blot analysis", "format": "functional, organism-based"}, "Mus musculus [3]": {"tested_on": "Mus musculus", "test": "In vivo inhibition of KDM5 in nude mouse xenografted with human MCF7 cells assessed as increase in H3K4me3 level in tumor at 75 mg/kg, po qd for 5 days measured at 1 hrs post last dose by Western blot analysis relative to control", "format": "functional"}, "[4]": {"test": "Kinetic solubility of the compound", "format": "physicochemical"}, "[5]": {"test": "Protein binding in mouse plasma", "format": "ADME, cell-free", "conditions": "read-out: PPB (converted)"}, "[6]": {"target": "T1, Lysine-specific demethylase 4C (Homo sapiens, UniProt Q9H3R0)", "T1 sequence (Q9H3R0 whole entry)": "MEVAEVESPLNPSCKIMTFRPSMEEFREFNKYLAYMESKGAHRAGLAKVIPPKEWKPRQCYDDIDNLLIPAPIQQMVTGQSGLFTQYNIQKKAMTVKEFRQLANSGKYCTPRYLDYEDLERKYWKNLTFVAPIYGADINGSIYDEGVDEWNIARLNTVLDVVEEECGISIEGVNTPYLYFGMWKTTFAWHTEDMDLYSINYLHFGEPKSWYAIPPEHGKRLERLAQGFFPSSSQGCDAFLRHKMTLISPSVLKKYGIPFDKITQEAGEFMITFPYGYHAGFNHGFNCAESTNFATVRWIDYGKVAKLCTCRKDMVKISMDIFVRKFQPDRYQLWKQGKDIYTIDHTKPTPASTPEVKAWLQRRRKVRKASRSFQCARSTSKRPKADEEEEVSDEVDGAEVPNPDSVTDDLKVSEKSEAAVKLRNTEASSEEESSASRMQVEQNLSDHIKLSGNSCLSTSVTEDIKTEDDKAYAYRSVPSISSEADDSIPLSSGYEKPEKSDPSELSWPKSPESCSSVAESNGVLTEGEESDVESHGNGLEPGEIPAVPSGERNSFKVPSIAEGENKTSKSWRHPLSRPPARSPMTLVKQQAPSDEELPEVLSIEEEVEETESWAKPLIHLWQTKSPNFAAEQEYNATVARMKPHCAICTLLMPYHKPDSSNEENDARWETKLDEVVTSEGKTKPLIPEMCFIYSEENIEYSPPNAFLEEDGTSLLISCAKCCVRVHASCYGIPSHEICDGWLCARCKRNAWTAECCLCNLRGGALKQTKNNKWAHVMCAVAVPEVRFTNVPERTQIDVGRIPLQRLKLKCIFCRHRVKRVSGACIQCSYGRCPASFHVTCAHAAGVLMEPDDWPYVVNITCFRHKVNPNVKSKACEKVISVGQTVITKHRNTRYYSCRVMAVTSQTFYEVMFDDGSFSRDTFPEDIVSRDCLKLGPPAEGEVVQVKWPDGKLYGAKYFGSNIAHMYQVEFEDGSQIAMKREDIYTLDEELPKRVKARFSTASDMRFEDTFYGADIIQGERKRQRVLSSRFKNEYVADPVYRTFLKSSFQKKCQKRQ", "test": "Inhibition of KDM4C (unknown origin) preincubated with enzyme"}, "[7]": {"target": "Lysine-specific demethylase 6B (Homo sapiens, UniProt O15054)", "sequence (O15054 whole entry)": "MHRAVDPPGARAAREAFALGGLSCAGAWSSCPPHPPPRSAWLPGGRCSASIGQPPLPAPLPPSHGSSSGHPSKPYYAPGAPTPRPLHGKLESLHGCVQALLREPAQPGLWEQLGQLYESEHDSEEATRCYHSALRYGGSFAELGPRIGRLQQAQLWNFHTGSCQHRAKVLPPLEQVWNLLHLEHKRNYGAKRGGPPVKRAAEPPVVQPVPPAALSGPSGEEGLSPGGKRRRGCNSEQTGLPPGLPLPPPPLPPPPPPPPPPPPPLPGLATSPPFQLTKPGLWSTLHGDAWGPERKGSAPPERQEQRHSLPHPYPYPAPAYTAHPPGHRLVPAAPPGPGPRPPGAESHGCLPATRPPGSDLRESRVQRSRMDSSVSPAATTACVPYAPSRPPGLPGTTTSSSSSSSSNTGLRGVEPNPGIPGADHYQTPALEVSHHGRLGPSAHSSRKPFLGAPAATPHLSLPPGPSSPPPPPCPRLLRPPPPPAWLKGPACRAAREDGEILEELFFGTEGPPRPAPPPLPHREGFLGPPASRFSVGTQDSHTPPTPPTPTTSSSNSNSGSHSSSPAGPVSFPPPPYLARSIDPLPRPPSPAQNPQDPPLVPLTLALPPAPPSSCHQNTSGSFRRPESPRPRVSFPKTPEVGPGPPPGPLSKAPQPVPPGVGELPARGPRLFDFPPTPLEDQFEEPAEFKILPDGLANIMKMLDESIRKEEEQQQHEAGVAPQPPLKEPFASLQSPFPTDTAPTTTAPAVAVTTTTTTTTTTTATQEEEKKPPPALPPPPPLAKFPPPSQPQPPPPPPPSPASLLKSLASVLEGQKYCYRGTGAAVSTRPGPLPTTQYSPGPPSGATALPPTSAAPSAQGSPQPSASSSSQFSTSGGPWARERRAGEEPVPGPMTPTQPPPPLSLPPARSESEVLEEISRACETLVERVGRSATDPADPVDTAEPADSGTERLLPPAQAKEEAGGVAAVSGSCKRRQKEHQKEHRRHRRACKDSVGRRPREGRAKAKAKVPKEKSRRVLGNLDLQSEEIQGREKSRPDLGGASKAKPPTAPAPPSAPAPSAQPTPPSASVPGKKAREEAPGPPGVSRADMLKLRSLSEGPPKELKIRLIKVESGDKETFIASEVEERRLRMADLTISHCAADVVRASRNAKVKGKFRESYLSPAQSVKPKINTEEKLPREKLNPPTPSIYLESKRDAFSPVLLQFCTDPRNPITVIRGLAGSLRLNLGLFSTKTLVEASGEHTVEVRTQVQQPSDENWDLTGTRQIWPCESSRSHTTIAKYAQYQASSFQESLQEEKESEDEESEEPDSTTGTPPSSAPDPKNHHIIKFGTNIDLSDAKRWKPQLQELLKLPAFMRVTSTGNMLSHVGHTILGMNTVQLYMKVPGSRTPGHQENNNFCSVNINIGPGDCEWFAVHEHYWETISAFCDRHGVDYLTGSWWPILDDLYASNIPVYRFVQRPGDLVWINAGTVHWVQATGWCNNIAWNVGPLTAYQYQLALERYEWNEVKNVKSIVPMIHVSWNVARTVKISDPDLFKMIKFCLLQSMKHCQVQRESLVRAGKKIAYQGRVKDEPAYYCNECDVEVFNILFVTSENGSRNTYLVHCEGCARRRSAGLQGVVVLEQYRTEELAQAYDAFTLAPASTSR", "test": "Inhibition of KDM6B (unknown origin)"}, "Mus musculus [8]": {"tested_on": "Mus musculus", "test": "In vivo inhibition of KDM5 in nude mouse xenografted with human MCF7 cells assessed as increase in H3K4me3 level in tumor at 75 mg/kg, po qd for 5 days measured at 0.5 hrs post last dose by Western blot analysis relative to control", "format": "functional"}}, "note": "Active and inactive are the calls of the source. The calls are words filed in the database; no cut-off is given here."}
{"smiles": "Cc1cc(Cl)ccc1COc1ccnn1-c1cc(C(=O)O)ccn1", "values": [{"measurement": "IC50", "setting": "[1]", "value": "> 40", "unit": "µM"}, {"measurement": "inhibition", "setting": "Mus musculus [2]", "value": "Active"}, {"measurement": "fold change (FC)", "setting": "Mus musculus [3]", "value": ">4"}, {"measurement": "Kinetic_solubility", "setting": "[4]", "value": "Soluble"}, {"measurement": "fraction unbound", "setting": "[5]", "value": 0.009}, {"measurement": "IC50", "setting": "[6]", "value": "0.035 to 0.041", "unit": "µM"}, {"measurement": "IC50", "setting": "[7]", "value": 2.3, "unit": "µM"}, {"measurement": "fold change (FC)", "setting": "Mus musculus [8]", "value": ">2"}]}
